Source: patent publication US10815208B2, “Method for preparing 2-hydroxyl-4-(2, 3-disubstituted benzyloxy)-5-substituted benzaldehyde derivative” (Institute of Materia Medica, Chinese Academy of Medical …, priority 2016, dated 2020)

Legend:
[1] = test system: advanced Hodgkin's lymphoma (HL); conditions: advanced HL patients with no treatment response to any of the approved drugs; cited from earlier work
[2] = test system: pleural mesothelioma (PM); conditions: 25 patients with pleural mesothelioma (PM); cited from earlier work
[3] = test system: advanced triple-negative breast cancer; conditions: in vivo; cited from earlier work
PD-1/PD-L1 = PD-1/PD-L1 (Homo sapiens (Human), UniProt Q9NZQ7); assay: Cisbio HTRF binding assay, PD-1/PD-L1 small molecule inhibitor screening; conditions: for IC50: HTRF, PD-1 (HIS tag) / PD-L1 (hFc tag), 8-10 concentrations
Excerpt: In vitro activity evaluation: Cisbio HTRF binding assay kit was applied for the detection method of in vitro enzymology level.
Screening Principles and Methods of PD-1/PD-L1 Small Molecule Inhibitors
1) Principle: PD-1 protein is with HIS tag, and PD-1 ligand PD-L1 is with hFc tag. Eu labeled anti-hFc antibody and XL665 labeled anti-HIS antibody are combined with the above two label proteins respectively. After laser excitation, energy can be transferred from donor Eu to receptor XL665, allowing XL665 to glow.
2) Experimental method: Reagents should be dispensed in the following order. For 384-well white ELISA plate, 2 μl of diluent or target compound diluted with diluent was added to each well, and then 4 μl of PD-1 protein and 4 μl of PD-L1 protein were added per well, incubated for 15 min at the room temperature; and 10 μl of anti-Tag1-Eu3^+ and anti-Tag2-XL665 was added per well and incubated for 1 h at the room temperature and the fluorescence signals at 665 nm and 620 nm were measured. HTRF rate=(665 nm/620 nm)*10^4. 8-10 concentrations were detected for each compound and IC50 was calculated by Graphpad software.

PD-1/PD-L1, sequence (Q9NZQ7 19-238): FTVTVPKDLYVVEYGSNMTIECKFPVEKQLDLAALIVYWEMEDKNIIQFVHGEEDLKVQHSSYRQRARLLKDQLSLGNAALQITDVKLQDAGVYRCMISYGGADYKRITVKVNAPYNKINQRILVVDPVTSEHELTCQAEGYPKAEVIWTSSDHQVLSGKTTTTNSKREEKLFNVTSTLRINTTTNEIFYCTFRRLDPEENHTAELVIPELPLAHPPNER

Molecule	treatment response [1]	inhibition of the interaction between PD-1 and PD-L1 (PD-1/PD-L1)	IC50 (PD-1/PD-L1)	other results
pembrolizumab [Keytruda]	complete remission			disease control rate [2]: 76%; overall response rate (ORR) [2]: 28%
MPDL3280A: Roche's PD-L1 monoclonal antibody				effect in advanced triple-negative breast cancer [3]: long-lasting effect
nivolumab [Opdvio]	complete remission			
CC(=O)NCCNCc1cc(Cl)c(OCc2cccc(-c3ccccc3)c2Br)cc1OCc1cccc(C#N)c1 [Example 2, N-acetylaminoethyl-4-(2-bromo-3-phenylbenzyloxy)-2-(3-cyanobenzyloxy)-5-chlorobenzylamine]		significantly inhibit	62.3 nM	
(R)—N-[2-(5-cyanopyridine-3-methyleneoxy)-4-(2-methyl-3-(2,3-dihydrobenzo[b][1,4]dioxin-6-yl)benzyloxy)-5-chlorobenzyl]-3-(pyridin-3-yl)alanine [Example 6]		significantly inhibit	35 nM	
